Experimental data as given in patent publication US8304422B2, “Compositions and methods for inhibition of the JAK pathway” (Rigel Pharmaceuticals, Inc., priority 2007, dated 2012).

Experiments:
[1] = system: Ramos B-Cell Line Stimulated with IL-4; experiment: Assay for Ramos B-Cell Line Stimulated with IL-4 (CD23 upregulation, FACS; Example 2); assay type: cell-based; conditions: human Ramos B cells, IL-4 50 units/mL for 20-24 hours, anti-CD23-PE
Summary of the method: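 Human Ramos B cells (5×10^4 per point, RPMI with 5% serum) preincubated 1 hour at 37° C with compound or DMSO, then stimulated with IL-4 at 50 units/mL final for 20-24 hours. CD23 upregulation measured by anti-CD23-PE staining and flow cytometry.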

BaF3 V617F cells; UKE-1 = experiment: Proliferation Assay (Cell Titer-Glo; Example 7); assay type: cell-based; conditions: proliferation 72 hours, inhibit JAK2 activity, cell line (BaF3 V617F or UKE-1) not stated
Summary of the method: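 BaF3 V617F cells (RPMI, 10% FBS) and UKE-1 cells (Iscove's DMEM, 10% FBS, 10% equine serum, 1 uM hydrocortisone) were exposed to 3-fold serially diluted compound in duplicate for 72 hours at 37 °C. Viable cell number quantified by Cell Titer-Glo luminescence; IC50 reported.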

IC50 [1]	IC50 (BaF3 V617F cells; UKE-1)	Compound
24.7 nM	63.7 nM	COc1c(C)cc(Nc2ncc(C)c(Nc3ccc(CNS(=O)(=O)C4CC4)cc3)n2)cc1C [II-42, N4-(4-cyclopropylsulfonylaminomethyl)phenyl-N2-(3,5-dimethyl-4-methoxy)phenyl-5-methyl-2,4-pyrimidinediamine]
44.9 nM	688 nM	Cc1cc(C)cc(Nc2ncc(C)c(Nc3ccc(CNS(=O)(=O)C4CC4)cc3)n2)c1 [II-7, N4-(4-cyclopropylsulfonylaminomethyl)phenyl-N2-(3,5-dimethyl)phenyl-5-methyl-2,4-pyrimidinediamine]
123 nM	405 nM	COc1cc(Nc2ncc(F)c(Nc3ccc(CNS(=O)(=O)C4CC4)cc3)n2)cc(OC)c1OC [II-1, N4-(4-cyclopropylsulfonylaminomethyl)phenyl-5-fluoro-N2-(3,4,5-trimethoxy)phenyl-2,4-pyrimidinediamine]
57.8 nM	708 nM	COc1ccc(Nc2ncc(C)c(Nc3ccc(CNS(=O)(=O)C4CC4)cc3)n2)cc1Cl [II-10, N2-(3-chloro-4-methoxy)phenyl-N4-(4-cyclopropylsulfonylaminomethyl)phenyl-5-methyl-2,4-pyrimidinediamine]
37.8 nM	123 nM	COc1c(C)cc(Nc2ncc(F)c(Nc3ccc(CNS(=O)(=O)C4CC4)cc3)n2)cc1C [II-41, N4-(4-cyclopropylsulfonylaminomethyl)phenyl-N2-(3,5-dimethyl-4-methoxy)phenyl-5-fluoro-2,4-pyrimidinediamine]
82.6 nM	408 nM	COc1cc(Nc2ncc(C)c(Nc3ccc(CNS(=O)(=O)C4CC4)cc3)n2)cc(OC)c1OC [II-9, N4-(4-cyclopropylsulfonylaminomethyl)phenyl-5-methyl-N2-(3,4,5-trimethoxy)phenyl-2,4-pyrimidinediamine]
49.4 nM	5800 nM	Cc1nc2cc(Nc3ncc(C)c(Nc4ccc(CNS(=O)(=O)C5CC5)cc4)n3)ccc2[nH]1 [III-3, N4-(4-cyclopropylsulfonylaminomethyl)phenyl-5-methyl-N2-(2-methylbenzoimidazol-5-yl)-2,4-pyrimidinediamine]

The next lines start with the compound.

Compound	IC50 [1]	IC50 (BaF3 V617F cells; UKE-1)
Cc1cnc(Nc2ccc(C(N)=O)cc2)nc1Nc1ccc(CNS(=O)(=O)C2CC2)cc1 [II-31, N2-(4-aminocarbonyl)phenyl-N4-(4-cyclopropylsulfonylaminomethyl)phenyl-5-methyl-2,4-pyrimidinediamine]	35.7 nM	2130 nM
Cc1cnc(Nc2cccc(C(N)=O)c2)nc1Nc1ccc(CNS(=O)(=O)C2CC2)cc1 [II-32, N2-(3-aminocarbonyl)phenyl-N4-(4-cyclopropylsulfonylaminomethyl)phenyl-5-methyl-2,4-pyrimidinediamine]	52.3 nM	1530 nM
Cc1cnc(Nc2cccc(C#N)c2)nc1Nc1ccc(CN(C)S(=O)(=O)C2CC2)cc1 [II-28, N2-(3-cyano)phenyl-N4-[4-(N-cyclopropylsulfonyl-N-methyl)aminomethyl]phenyl-5-methyl-2,4-pyrimidinediamine]	233 nM	10900 nM
NC(=O)c1ccc(Nc2ncc(Cl)c(Nc3ccc(CNS(=O)(=O)C4CC4)cc3)n2)cc1 [II-37, N2-(4-aminocarbonyl)phenyl-5-chloro-N4-(4-cyclopropylsulfonylaminomethyl)phenyl-2,4-pyrimidinediamine]	18.3 nM	875 nM
N#Cc1ccc(Nc2ncc(F)c(Nc3ccc(CNS(=O)(=O)C4CC4)cc3)n2)cc1 [II-29, N2-(4-cyano)phenyl-N4-(4-cyclopropylsulfonylaminomethyl)phenyl-5-fluoro-2,4-pyrimidinediamine]	78.6 nM	12500 nM
Cc1nc2cc(Nc3ncc(Cl)c(Nc4ccc(CNS(=O)(=O)C5CC5)cc4)n3)ccc2[nH]1 [III-6, 5-chloro-N4-(4-cyclopropylsulfonylaminomethyl)phenyl-N2-(2-methylbenzoimidazol-5-yl)-2,4-pyrimidinediamine]	26.6 nM	1450 nM
N#Cc1ccc(Nc2ncc(F)c(Nc3ccc(CNS(=O)(=O)C4CC4)cc3)n2)cc1Cl [II-5, N2-(3-chloro-4-cyano)phenyl-N4-(4-cyclopropylsulfonylaminomethyl)phenyl-5-fluoro-2,4-pyrimidinediamine]	364 nM	6060 nM
Cc1cc(C)cc(Nc2ncc(C)c(Nc3ccc4c(c3)CCN(S(=O)(=O)C3CC3)C4)n2)c1 [VIII-7, N4-[(N-cyclopropylsulfonyl)-1,2,3,4-tetrahydroisoquinolin-6-yl]-N2-(3,5-dimethyl)phenyl-5-methyl-2,4-pyrimidinediamine]	110 nM	478 nM
NC(=O)c1cccc(Nc2ncc(F)c(Nc3ccc(CNS(=O)(=O)C4CC4)cc3)n2)c1 [II-16, N2-(3-aminocarbonyl)phenyl-N4-(4-cyclopropylsulfonylaminomethyl)phenyl-5-fluoro-2,4-pyrimidinediamine]	265 nM	3290 nM
Cc1cnc(Nc2ccc(C(N)=O)cc2)nc1Nc1cccc(CNS(=O)(=O)C2CC2)c1 [II-23, N2-(4-aminocarbonyl)phenyl-N4-(3-cyclopropylsulfonylaminomethyl)phenyl-5-methyl-2,4-pyrimidinediamine]	107 nM	6140 nM
Cc1cnc(Nc2cccc(C#N)c2)nc1Nc1cccc(CNS(=O)(=O)C2CC2)c1 [II-26, N2-(3-cyano)phenyl-N4-(3-cyclopropylsulfonylaminomethyl)phenyl-5-methyl-2,4-pyrimidinediamine]	146 nM	2240 nM
